{
  "source": "patent US20240148037A1",
  "about": "“STEVIOL GLYCOSIDE FORMULATIONS FOR FOOD AND BEVERAGES” (SWEEGEN, INC., priority 2019, published 2024)",
  "origin": "cited, not measured here",
  "data": [
    {"conditions": "relative to sucrose", "values": [
      {"compound": "Rebaudioside C", "times sweeter than sucrose": "40-60 times"},
      {"compound": "C=C1C[C@@]23CC[C@H]4[C@@](C)(CCC[C@@]4(C)C(=O)O[C@@H]4O[C@H](CO)[C@@H](O)[C@H](O)[C@H]4O)[C@@H]2CC[C@]1(O[C@@H]1O[C@H](CO)[C@@H](O)[C@H](O)[C@H]1O[C@@H]1O[C@H](CO)[C@@H](O)[C@H](O)[C@H]1O)C3", "note": "[stevioside]", "times sweeter than sucrose": "100-150 times"},
      {"compound": "C=C1C[C@@]23CC[C@H]4[C@@](C)(CCC[C@@]4(C)C(=O)O[C@@H]4O[C@H](CO)[C@@H](O)[C@H](O)[C@H]4O)[C@@H]2CC[C@]1(O[C@@H]1O[C@H](CO)[C@@H](O)[C@H](O)[C@H]1O[C@@H]1O[C@@H](C)[C@H](O)[C@@H](O)[C@H]1O)C3", "note": "[Dulcoside A]", "times sweeter than sucrose": "about 30 times"}
    ]}
  ]
}
